# Tests used:
# [1] = target: Protein arginine N-methyltransferase 5 (Homo sapiens) (UniProt O14744); experiment: In vivo inhibition of PRMT5 in female athymic nude mouse xenografted with MTAP-deleted human U-87 MG cells assessed as decrease in SDMA level in tumor at 30 mg/kg, po administered once daily for 14 days and measured 2 to 8 hrs post last dose by ELISA relative to control; assay type: functional, organism-based; details: time 338-344 hrs
# Cytochrome P450 2C9 = Cytochrome P450 2C9 (Homo sapiens, UniProt P11712); experiment: Inhibition of CYP2C9 (unknown origin)
# [2] = target: PRMT5/MEP50 complex (Homo sapiens) (UniProt O14744+Q9BQA1); experiment: Inhibition of human PRMT5/MEP50 at 10 uM relative to control; assay type: protein-complex assay
# [3] = Protein binding in human plasma assessed as unbound fraction by ultracentrifugation
# U-87 MG = experiment: Antiproliferative activity against human U-87 MG cells assessed as effect on cell viability; assay type: functional, cell-based, U-87MG ATCC
# HCT-116 [4] = experiment: Antitumor activity against MTAP-deleted human HCT-116 cells xenografted in female athymic nude mouse model assessed as tumor growth inhibition at 10 mg/kg, po administered once daily for 14 days relative to control; assay type: functional; details: HCT-116, 336 h, time 14 day, read-out: TGI
# [5] = target: Protein arginine N-methyltransferase 5 (Homo sapiens) (UniProt O14744); experiment: Selectivity ratio of dissociation rate for binding affinity to PRMT5 (unknown origin) in presence of SAM to dissociation rate for binding affinity to PRMT5 (unknown origin) in presence of MTA
# [6] = Unbound clearance in CD-1 mouse at 1 mg/kg, iv; assay type: ADME, organism-based; details: in vivo
# [7] = Unbound CSF-to-plasma concentration ratio in male Sprague-Dawley rat at 75 mg/kg, po administered as single dose; assay type: ADME, organism-based
# [8] = Metabolic stability in dog liver microsomes assessed as intrinsic clearance; assay type: ADME, Canis lupus familiaris, Microsome; details: read-out: CLH
# [9] = Unbound brain-to-plasma concentration ratio in female Sprague-Dawley rat at 75 mg/kg, po administered as single dose; assay type: ADME, organism-based; details: read-out: K(p,uu,brain)
# [10] = target: Protein arginine N-methyltransferase 5 (Homo sapiens) (UniProt O14744); experiment: In vivo inhibition of PRMT5 in athymic nude mouse xenografted with human HCT-116 cells harboring wildtype MTAP assessed as decrease in SDMA level in tumor at 3 mg/kg, po administered once daily for 4 days and measured 4 hrs post last dose by ELISA relative to control; assay type: functional, organism-based; details: time 4.0 day
# [11] = Unbound brain-to-plasma concentration ratio in male Sprague-Dawley rat at 25 mg/kg, po administered as single dose; assay type: ADME, organism-based; details: read-out: K(p,uu,brain)
# HCT-116 [12] = experiment: Antitumor activity against MTAP-deleted human HCT-116 cells xenografted in female athymic nude mouse model assessed as tumor growth inhibition at 100 mg/kg, po administered once daily for 14 days relative to control; assay type: functional; details: HCT-116, 336 h, time 14 day, read-out: TGI
# [13] = Solubility of compound in Hcl buffer at pH 2.0
# [14] = Unbound clearance in Beagle dog at 0.5 mg/kg, iv; assay type: ADME, organism-based, Canis lupus familiaris; details: in vivo
# HCT-116 [15] = experiment: Antiproliferative activity against MTAP-deleted human HCT-116 cells assessed as effect on cell viability incubated for 6 days by Celltiter-Glo luminescent cell viability assay; assay type: functional, cell-based; details: HCT-116, 144 h
# [16] = Antitumor activity against MTAP-deleted human U-87 MG cells xenografted in female athymic nude mouse model assessed as tumor growth inhibition at 300 mg/kg, po administered once daily for 14 days and measured 24 hrs post last dose relative to control; assay type: functional, U-87MG ATCC; details: 360 h, time 15 day, read-out: TGI
# [17] = Solubility of compound in SIF at pH 6.8
# Chain of Protein arginine N-methyltransferase 5 (Homo sapiens) (O14744 whole entry): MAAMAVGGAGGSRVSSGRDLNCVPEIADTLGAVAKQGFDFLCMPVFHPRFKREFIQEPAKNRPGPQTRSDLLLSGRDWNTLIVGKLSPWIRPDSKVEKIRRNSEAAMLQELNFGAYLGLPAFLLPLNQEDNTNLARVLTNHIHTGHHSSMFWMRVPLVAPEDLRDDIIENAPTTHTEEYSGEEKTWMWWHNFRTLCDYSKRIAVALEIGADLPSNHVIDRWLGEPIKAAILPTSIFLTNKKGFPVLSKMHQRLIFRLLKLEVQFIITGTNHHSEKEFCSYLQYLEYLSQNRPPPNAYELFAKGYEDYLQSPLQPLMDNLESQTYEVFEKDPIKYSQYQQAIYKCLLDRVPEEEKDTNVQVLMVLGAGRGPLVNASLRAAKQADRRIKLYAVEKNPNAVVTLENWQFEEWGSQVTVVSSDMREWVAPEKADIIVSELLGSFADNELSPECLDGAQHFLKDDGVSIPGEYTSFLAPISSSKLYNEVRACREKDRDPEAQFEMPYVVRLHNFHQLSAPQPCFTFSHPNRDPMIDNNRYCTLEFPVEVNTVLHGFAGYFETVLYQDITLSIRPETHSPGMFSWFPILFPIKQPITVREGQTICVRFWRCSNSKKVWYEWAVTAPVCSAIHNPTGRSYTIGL
# Chain of Cytochrome P450 2C9 (P11712 whole entry): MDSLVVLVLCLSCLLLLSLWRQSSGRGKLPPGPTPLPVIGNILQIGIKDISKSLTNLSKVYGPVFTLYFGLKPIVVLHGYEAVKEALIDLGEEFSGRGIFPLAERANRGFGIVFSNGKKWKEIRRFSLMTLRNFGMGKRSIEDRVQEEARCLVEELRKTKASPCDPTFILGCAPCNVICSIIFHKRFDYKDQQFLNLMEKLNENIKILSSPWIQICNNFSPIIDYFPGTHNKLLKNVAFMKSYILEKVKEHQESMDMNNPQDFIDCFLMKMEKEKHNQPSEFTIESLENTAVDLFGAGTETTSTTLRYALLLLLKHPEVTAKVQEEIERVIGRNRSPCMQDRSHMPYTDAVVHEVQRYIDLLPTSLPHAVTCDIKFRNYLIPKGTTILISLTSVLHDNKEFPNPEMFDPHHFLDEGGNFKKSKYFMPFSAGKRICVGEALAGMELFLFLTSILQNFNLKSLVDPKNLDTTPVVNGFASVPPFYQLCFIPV
smiles,measurement,setting,value
Nc1nc2cnc(C(=O)N3CCOC[C@@H]3c3ccc(C(F)(F)F)cc3)cc2c2c1COC2,inhibition,[1],77%
same,IC50,Cytochrome P450 2C9,59 µM
same,inhibition,[2],84%
same,fraction unbound,[3],0.11
same,IC50,U-87 MG,357 nM
same,inhibition in vivo at 10 mg/kg,HCT-116 [4],55%
same,Selectivity ratio,[5],60
same,CL free,[6],8.5 L/h/kg
same,Kp uu,[7],0.13
same,microsomal CLint,[8],14 µL/min/mg
same,Kp uu,[9],0.12
same,inhibition,[10],12%
same,Kp uu,[11],0.15
same,inhibition in vivo at 100 mg/kg,HCT-116 [12],87%
same,solubility,[13],492 µM
same,CL free,[14],3 L/h/kg
same,IC50,HCT-116 [15],102 nM
same,inhibition in vivo at 300 mg/kg,[16],88%
same,solubility,[17],335 µM

# From ChEMBL document CHEMBL6109134, “Discovery of AMG 193, an MTA-Cooperative PRMT5 Inhibitor for the Treatment of MTAP-Deleted Cancers” (J Med Chem, 2025)
